Laboratory results taken from patent US7276502B2, “Thiazoles useful as inhibitors of protein kinases” (Vertex Pharmaceuticals Incorporated, priority 2003, dated 2007).
Read-outs that look alike come from different tables or passages of the source.

Columns and labels:
ZAP-70 = biological target: T1, ZAP-70 (Homo sapiens, UniProt P43403); assay: ZAP-70 inhibition assay (standard coupled enzyme assay); format: biochemical; details: 100 μM ATP, 20 μM poly-4EY peptide, 30° C., 60 nM ZAP-70
T1 sequence (P43403 1-619): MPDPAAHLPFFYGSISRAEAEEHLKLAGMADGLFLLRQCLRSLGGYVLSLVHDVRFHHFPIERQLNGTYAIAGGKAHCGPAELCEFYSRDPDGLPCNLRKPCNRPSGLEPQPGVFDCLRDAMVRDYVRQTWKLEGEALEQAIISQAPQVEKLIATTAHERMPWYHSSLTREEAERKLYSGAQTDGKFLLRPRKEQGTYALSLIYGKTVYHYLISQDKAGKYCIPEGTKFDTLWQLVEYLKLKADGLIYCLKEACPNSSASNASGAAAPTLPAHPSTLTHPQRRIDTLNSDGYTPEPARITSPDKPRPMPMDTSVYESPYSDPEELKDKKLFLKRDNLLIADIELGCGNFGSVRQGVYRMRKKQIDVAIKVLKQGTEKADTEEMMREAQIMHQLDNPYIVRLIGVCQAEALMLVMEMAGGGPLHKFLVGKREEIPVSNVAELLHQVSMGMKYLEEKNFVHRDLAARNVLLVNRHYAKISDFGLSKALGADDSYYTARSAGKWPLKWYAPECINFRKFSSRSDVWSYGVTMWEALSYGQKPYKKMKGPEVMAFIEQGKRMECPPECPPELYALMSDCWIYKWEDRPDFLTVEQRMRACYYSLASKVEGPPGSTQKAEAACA
Procedure: Compounds were screened for their ability to inhibit ZAP-70 using a standard coupled enzyme assay (Fox et al., Protein Sci. 1998, 7, 2249). Assays were carried out in a mixture of 100 mM HEPES (pH 7.5), 10 mM MgCl2, 25 mM NaCl, 2 mM DTT and 3% DMSO. Final substrate concentrations in the assay were 100 μM ATP (Sigma Chemicals) and 20 μM peptide (poly-4EY, Sigma Chemicals). Assays were carried out at 30° C. and 60 nM ZAP-70. Final concentrations of the components of the coupled enzyme system were 2.5 mM phosphoenolpyruvate, 300 μM NADH, 30 μg/ml pyruvate kinase and 10 μg/ml lactate dehydrogenase.
An assay stock buffer solution was prepared containing all of the reagents listed above, with the exception of ZAP-70 and the test compound of interest of the present invention. 55 μl of the stock solution was placed in a 96 well plate followed by addition of 2 μl of DMSO stock containing serial dilutions of the test compound of the present invention (typically starting from a final concentration of 15 μM). The plate was preincubated for 10 minutes at 30° C. and the reaction initiated by addition of 10 μl of enzyme (final concentration 60 nM). Initial reaction rates were determined with a Molecular Devices SpectraMax Plus plate reader over a 15 minute time course. Ki data was calculated from non-linear regression analysis using the Prism software package (GraphPad Prism version 3.0a for Macintosh, GraphPad Software, San Diego Calif., USA).

SYK = SYK (Homo sapiens, UniProt P43405); assay: SYK inhibition assay (standard coupled enzyme assay); format: biochemical
Procedure: Reactions were carried out in 100 mM HEPES (pH 7.5), 10 mM MgCl2, 25 mM NaCl, 1 mM DTT and 1.5% DMSO. Final substrate concentrations in the assay were 200 μM ATP (Sigma chemical Co.) and 4 μM poly Gly-Tyr peptide (Sigma Chemical Co.). Assays were carried out at 30° C. and 200 nM SYK. Final concentrations of the components of the coupled enzyme system were 2.5 mM phosphoenolpyruvate, 300 μM NADH, 30 μg/ml pyruvate kinase and 10 μg/ml lactate dehydrogenase.
An assay stock buffer solution was prepared containing all of the reagents listed above, with the exception of SYK, DTT, and the test compound of interest of the present invention. 56 μl of the test reaction was placed in a 96 well plate followed by the addition of 1 μl of 2 mM DMSO stock containing the test compound of the present invnetion (final compound concentration 30 μM).

[1] = coupled enzyme assay, 200 μM ATP, 4 μM poly Gly-Tyr peptide, 30° C., read-out: Ki (SYK)

Ki (ZAP-70) [µM] | Ki (SYK; [1]) [µM] | Ki (SYK) [µM] | Compound
≤ 5 | ≤ 5 |  | Cc1cnc(-c2ccnc(Nc3ccc4c(C)cc(=O)oc4c3)n2)s1 [Example I-34]
≤ 5 | ≤ 5 |  | Cc1cnc(-c2ccnc(Nc3ccc4[nH]nnc4c3)n2)s1 [Example I-128]
≤ 5 | ≤ 5 |  | Cc1cnc(-c2ccnc(Nc3ccc(N(C)C)cc3)n2)s1 [Example I-92]
≤ 5 | ≤ 5 |  | COc1ccc(Nc2nccc(-c3ncc(C)s3)n2)cc1OC [Example I-2]
≤ 5 | ≤ 5 |  | CCOc1ccc(Nc2nccc(-c3ncc(C)s3)n2)cc1 [Example I-14]
≤ 5 | ≤ 5 |  | CC(=O)Nc1ccc(Nc2nccc(-c3ncc(C)s3)n2)cc1C [Example I-35]
≤ 5 | ≤ 5 |  | Cc1cnc(-c2ccnc(Nc3ccc4sc(C)nc4c3)n2)s1 [Example I-114]
≤ 5 | ≤ 5 |  | Cc1cnc(-c2ccnc(Nc3ccc(Cl)c(C)c3)n2)s1 [Example I-29]
≤ 5 | ≤ 5 |  | Cc1cnc(-c2ccnc(Nc3ccc4[nH]ccc4c3)n2)s1 [Example I-31]
≤ 5 | ≤ 5 |  | COc1ccc(Nc2nccc(-c3ncc(C)s3)n2)cc1 [Example I-28]
≤ 5 | ≤ 5 |  | Cc1cnc(-c2ccnc(Nc3cccc(C#N)c3)n2)s1 [Example I-90]
≤ 5 | ≤ 5 |  | Cc1cnc(-c2ccnc(Nc3cccc(C(N)=O)c3)n2)s1 [Example I-15]
≤ 5 | ≤ 5 |  | COc1ccc(Nc2nccc(-c3ncc(C)s3)n2)cc1O [Example I-17]
≤ 5 | ≤ 5 |  | Cc1cnc(-c2ccnc(Nc3ccc4ncsc4c3)n2)s1 [Example I-135]
≤ 5 | ≤ 5 |  | Cc1cnc(-c2ccnc(Nc3ccc(C)c(Br)c3)n2)s1 [Example I-8]
≤ 5 | ≤ 5 |  | CC(=O)c1ccc(Nc2nccc(-c3ncc(C)s3)n2)cc1 [Example I-116]
≤ 5 | ≤ 5 |  | Cc1cnc(-c2ccnc(Nc3ccc4c(c3)OCCO4)n2)s1 [Example I-127]
≤ 5 | ≤ 5 |  | Cc1cnc(-c2ccnc(Nc3cccc(CC#N)c3)n2)s1 [Example I-38]
≤ 5 | ≤ 5 |  | Cc1cc2cc(Nc3nccc(-c4ncc(C)s4)n3)ccc2[nH]1 [Example I-18]
≤ 5 | ≤ 5 |  | Cc1cnc(-c2ccnc(Nc3ccccc3)n2)s1 [Example I-49]
≤ 5 | ≤ 5 |  | COc1ccc(Nc2nccc(-c3ncc(C)s3)n2)cc1F [Example I-5]

The next lines start with the molecule.

Compound | Ki (ZAP-70) [µM] | Ki (SYK; [1]) [µM] | Ki (SYK) [µM]
Cc1cnc(-c2ccnc(Nc3ccc(N4CCOCC4)cc3)n2)s1 [Example I-91] | ≤ 5 | ≤ 5 | 
Cc1cc(C)cc(Nc2nccc(-c3ncc(CN4CCOCC4)s3)n2)c1 [Example I-48] | ≤ 5 | ≤ 5 | 
Cc1cc(C)cc(Nc2nccc(-c3ncc(CNCCCO)s3)n2)c1 [Example I-88] | ≤ 5 | ≤ 5 | 
Cc1cnc(-c2ccnc(Nc3ccc([N+](=O)[O-])cc3)n2)s1 [Example I-79] | ≤ 5 | ≤ 5 | 
Cc1cc(C)cc(Nc2nccc(-c3ncc(C(=O)O)s3)n2)c1 [Example I-118] | ≤ 5 | ≤ 5 | 
Cc1cnc(-c2ccnc(Nc3ccc(NC(=O)CCNC(=O)OC(C)(C)C)cc3)n2)s1 [Example I-153] | ≤ 5 | ≤ 5 | 
Cc1cnc(-c2ccnc(Nc3ccccc3Oc3ccccc3)n2)s1 [Example I-95] | ≤ 5 | ≤ 5 | 
OCc1csc(-c2ccnc(Nc3cccc(OCc4ccccc4)c3)n2)n1 [Example I-73] | ≤ 5 | ≤ 5 | 
Cc1cc(C)cc(Nc2nccc(-c3nc(C)c(CCOC4CCCCO4)s3)n2)c1 (stereo not drawn) [Example I-119] | ≤ 5 | ≤ 5 | 
COc1cc(Nc2nccc(-c3nc(CO)cs3)n2)cc(C(F)(F)F)c1 [Example I-84] | ≤ 5 |  | ≤ 5
COc1cc(Nc2nccc(-c3ncc(N4CCNCC4)s3)n2)cc(OC)c1OC [Example I-145] | ≤ 5 | ≤ 5 | 
Cc1cnc(-c2ccnc(Nc3cc(O)cc(C(F)(F)F)c3)n2)s1 [Example I-109] | ≤ 5 | ≤ 5 | 
Cc1cnc(-c2ccnc(Nc3ccc(F)cc3F)n2)s1 [Example I-97] | ≤ 5 | ≤ 5 | 
Cc1cc(C)cc(Nc2nccc(-c3ncc(CO)s3)n2)c1 [Example I-43] | ≤ 5 |  | ≤ 5
Cc1cnc(-c2ccnc(Nc3ccc(N4CCN(Cc5ccccc5)CC4)cc3)n2)s1 [Example I-7] | ≤ 5 | ≤ 5 | 
Cc1cc(C)cc(Nc2nccc(-c3nc(C)c(C)s3)n2)c1 [Example I-70] | ≤ 5 | ≤ 5 | 
CC(=O)OCc1cnc(-c2ccnc(Nc3cc(C)cc(C)c3)n2)s1 [Example I-72] | ≤ 5 | ≤ 5 | 
CCc1cnc(-c2ccnc(Nc3cc(C)cc(C)c3)n2)s1 [Example I-75] | ≤ 5 | ≤ 5 | 

Compound | Ki (ZAP-70) [µM] | Ki (SYK; [1]) [µM] | Ki (SYK) [µM]
Cc1cnc(-c2ccnc(NC3CCCC3)n2)s1 [Example I-81] | ≤ 5 | ≤ 5 | 
Cc1cc(C)cc(Nc2nccc(-c3nc(C)c(CCO)s3)n2)c1 [Example I-123] | ≤ 5 |  | ≤ 5
Cc1cc(C)cc(Nc2nccc(-c3ncc(N(C)C)s3)n2)c1 [Example I-94] | ≤ 5 | ≤ 5 | 
Cc1cc(C)cc(Nc2nccc(-c3ncc(Br)s3)n2)c1 [Example I-71] | ≤ 5 | ≤ 5 | 
Cc1cc(C)cc(Nc2nccc(-c3ncc(CN(C)C)s3)n2)c1 [Example I-44] | ≤ 5 | ≤ 5 | 
COc1ccc(Nc2nccc(-c3ncc(C)s3)n2)cc1-c1ccccc1 [Example I-16] | ≤ 5 | ≤ 5 | 
CNC(=O)c1cnc(-c2ccnc(Nc3cc(C)cc(C)c3)n2)s1 [Example I-115] | ≤ 5 | ≤ 5 | 
Cc1cnc(-c2ccnc(Nc3cc(Cl)cc(Cl)c3)n2)s1 [Example I-51] | ≤ 5 | ≤ 5 | 
Cc1cc(C)cc(Nc2nccc(-c3nc(CBr)cs3)n2)c1 [Example I-64] | ≤ 5 | ≤ 5 | 
CC(=O)OCc1cnc(-c2ccnc(Nc3ccccc3OCc3ccccc3)n2)s1 [Example I-149] | ≤ 5 | ≤ 5 | 
COc1cc(Nc2nccc(-c3ncc(C)s3)n2)cc(OC)c1OC [Example I-122] | ≤ 5 | ≤ 5 | 
Cc1cnc(-c2ccnc(Nc3ccc(Nc4ccccc4)cc3)n2)s1 [Example I-12] | ≤ 5 | ≤ 5 | 
Cc1cc(C)cc(Nc2nccc(-c3ncc(CNc4ccncc4)s3)n2)c1 [Example I-125] | ≤ 5 | ≤ 5 | 
Cc1cnc(-c2ccnc(Nc3cccc(OCc4ccccc4)c3)n2)s1 [Example I-37] | ≤ 5 | ≤ 5 | 
Cc1cc(C)cc(Nc2nccc(-c3nc(CN)cs3)n2)c1 [Example I-76] | ≤ 5 | ≤ 5 | 
CCN(CC)CCCNCc1cnc(-c2ccnc(Nc3cc(C)cc(C)c3)n2)s1 [Example I-45] | ≤ 5 | ≤ 5 | 
Cc1cnc(-c2ccnc(Nc3ccc(NC(=O)OC(C)(C)C)cc3)n2)s1 [Example I-110] | ≤ 5 | ≤ 5 | 
CCn1c2ccccc2c2cc(Nc3nccc(-c4ncc(C)s4)n3)ccc21 [Example I-26] | ≤ 5 | ≤ 5 | 
